Source: EP4537846A2, “ANAVEX2-73 FOR THE TREATMENT OF ALZHEIMER S DISEASE” (priority 2017, dated 2018)

Tests used:
[1] = tested on: mild-to-moderate Alzheimer's disease patients; experiment: Phase 2a clinical trial: MMSE and Cogstate scales; format: in vivo; conditions: preliminary; twelve subjects, on-off-on regimen
Description: (§1) The 36-day multicenter randomized clinical trial included both male and female mild-to-moderate Alzheimer's disease patients. ANAVEX2-73 was administered to twelve subjects as an add-on therapy to the donepezil current standard of care. ANAVEX2-73 was administered according to a two-period on-off-on cross-over dosing regimen in which the subjects were administered ANAVEX2-73 for 12 days (1st period) followed by a 12-day wash-out period before being administered ANAVEX2-73 for a second 12-day period (2nd period). Those subjects that were administered ANAVEX2-73 by oral administration during the 1st period were administered ANAVEX2-73 intravenously during the 2nd period, and vice versa. About half of the subjects were administered a 30 mg oral dosage form while the other half of subjects were administered a 50 mg oral dosage form. The intravenous dosage was either 3 mg or 5 mg, with about half of the subjects administered 3 mg and the other half administered 5 mg.
(§2) 5-9, were achieved without any dose optimization. […] An additional 20 subjects will be studied during the remainder of the Phase 2a clinical trial. Phase 2b clinical trials, involving an additional 26-week extension of daily oral dosage administration of ANAVEX2-73 is on-going.

[2] = tested on: mild-to-moderate Alzheimer's disease patients; experiment: Phase 2a clinical trial: safety profile; format: in vivo; conditions: during Phase 2a trials
Description: as §1, §2

[3] = tested on: healthy male volunteers; experiment: Randomized, placebo-controlled single ascending dose Phase 1 study; format: in vivo
Description: See Poster: A Phase 1 Dose Escalation Study to Investigate Safety, Tolerability, and Pharmacokinetics of ANAVEX2-73 in Healthy Male Subjects, CNS Summit 2014, Boca Raton, FL, by Ole Voges, Ingo Weigmann, Norman Bitterlich, Christoph Schindler and Christopher Missling. […] Based on the frequency and intensity of […] adverse events (TEAEs) the maximum tolerable dose (MTD) and the minimum intolerable dose (MID) were defined as 55 mg and 60 mg, respectively.

[4] = tested on: amyloid toxicity in mice; conditions: cited from earlier work
[5] = tested on: mild-to-moderate Alzheimer's disease patients; experiment: Phase 2a clinical trial: EEG peak alpha frequency (PAF); format: in vivo; conditions: twelve patients, day 36 vs baseline
Description: as §1, with “The intravenous dosage was either 3 mg or 5 mg, with about half of the subjects administered 3 mg and the other half administered 5 mg.” left out
Resting electroencephalographic (EEG) activity and event related potentials (EEG/ERP) were used to assess the cognitive effects of ANAVEX2-73 administration. Event related potentials (ERPs) are voltage changes time-locked to some physical or mental occurrence in ongoing electrical brain activity, as recorded by EEG. […]
Subjects were tested using a three-stimulus oddball paradigm. […] Electroencephalographic (EEG) activity was recorded from seven electrode sites (Fz, Cz, Pz, F3, P3, F4, and P4) of the international 10-20 system using a COGNISION™ Headset (Neuronetrix). […]

[6] = tested on: mild-to-moderate Alzheimer's disease patients; experiment: Phase 2a clinical trial: event related potentials (ERP), auditory P300, three-stimulus oddball paradigm; format: in vivo
Description: as §1
Resting electroencephalographic (EEG) activity and event related potentials (EEG/ERP) were used to assess the cognitive effects of ANAVEX2-73 administration. Event related potentials (ERPs) are voltage changes time-locked to some physical or mental occurrence in ongoing electrical brain activity, as recorded by EEG. Event-related potentials (ERPs) provide a sensitive and reliable measure of the cognitive effects associated with early Alzheimer's disease. […] See for example, New Encycl. Neurosci., Oxford Academic Press, p. 13-18 (2009). For example, ERP tests on young presymptomatic individuals who carry mutations in the presenilin-1 and amyloid precursor protein genes show significant changes in ERP patterns years before the onset of behavioral symptoms and the development of Alzheimer's disease. See for example, Neurology 73, 1649-1655 (2009); Neurology 77, 469-475 (2011). […] For instance, ERP markers of cognitive function are increasingly altered in longitudinal studies on individuals with mild cognitive impairment (MCI) and Alzheimer's disease patients. See for example, Clin. Neurophysiol. 122, 1322-1326 (2011); Clin. Neurophysiol. 121, 194-199 (2010). […] See for example, Neurol. Neurochir. Pol. 35 Suppl 3, 37-43 (2001); Clin. Neuropharmacol. 25, 207-215 (2002); Neurosci. Biomed. Eng. 1, 34-39 (2013).
In particular, the auditory P300 component of the ERP has been widely applied in the study of age-related cognitive dysfunction because it is thought to reflect attentional and memory processes. Auditory P300 is a positive deflection occurring at about 300 ms from stimulus onset. It is generated by the activation of multiple neocortical and limbic regions. Auditory P300 has two functionally different components, an earlier P3a component that is maximal over frontocentral regions, and a later P3b component (hereafter "P300") that is maximal at the posterior scalp locations. See for example, Int. J. of Alzheimer's Dis. 2011, Article ID 653173, 1-7 (2011). P300 amplitude data collected as part of a double blind six month study for 15 patients with mild Alzheimer's disease on donepezil, as compared to a vitamin E baseline, has shown that P300 amplitude data correlates with ADAS-Cog and MMSE data for the same patients. See, Clin. Neuropharmacol. 25(4), 207-215 (2002).
Subjects were tested using a three-stimulus oddball paradigm. Stimuli comprised of standard tones (1000 Hz), target tones (2000 Hz) and unexpected distractor tones (white noise) that were played with probabilities of 0.75, 0.15, and 0.10. Tones were presented in pseudorandom order, so that target and distractor tones were never presented sequentially. Subjects were instructed to respond to the target stimuli by pressing a button with their dominant hand. For each test, between 300 and 400 stimuli were presented binaurally through insert ear phones at 70 dB volume. The tone duration for each stimulus was 100 ms with rise and fall times of 10 ms. The interstimulus interval was randomized between 1.5 and 2 s. […]

[7] = target: sigma-1 (Homo sapiens, UniProt Q99720); conditions: sigma-1 receptor; 'is believed to bind'; cited from earlier work
sigma-1, sequence (Q99720 whole entry): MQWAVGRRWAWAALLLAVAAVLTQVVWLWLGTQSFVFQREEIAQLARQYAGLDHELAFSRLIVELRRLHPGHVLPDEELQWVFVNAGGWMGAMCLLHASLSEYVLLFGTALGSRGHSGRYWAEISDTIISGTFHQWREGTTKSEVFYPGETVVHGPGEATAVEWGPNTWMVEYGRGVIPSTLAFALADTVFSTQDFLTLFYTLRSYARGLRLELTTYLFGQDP

[8] = tested on: muscarinic acetylcholine receptors; conditions: 'is believed to bind'; cited from earlier work
[9] = tested on: patients with Alzheimer's disease or presenting with the early signs of Alzheimer's disease; experiment: Single-patient treatment examples with intermittent dosing regimen; format: in vivo; conditions: person
Excerpt: The following examples show uses of ANAVEX2-73 in the treatment of patients with Alzheimer's disease or presenting with the early signs of Alzheimer's disease. The clinical determination that a patient may have Alzheimer's disease or is presenting with early signs of Alzheimer's disease is well known in the art. By way of example, the following references (and all publications cited herein) are incorporated by reference herein in their entireties: Dementia: From Diagnosis to Management - A Functional Approach 1st Edition, Psychology Press (February 17, 2009); Clinician's Guide to Psychological Assessment and Testing: With Forms and Templates for Effective Practice 1st Edition, Springer Publishing Company (September 18, 2012); Neurodegener. Dis. Manag. 5(3), 191-201 (2015); Artif. Intell. Med. 64(1), 59-74 (2015); Clin. Chem. 60(12), 1585-1586 (2014); and Metabolism 64(3 Suppl 1), S47-50 (2014).

[10] = single ascending oral doses, healthy subjects

For `CN(C)CC1CCOC1(c1ccccc1)c1ccccc1.Cl` (stereo not drawn) [ANAVEX2-73, tetrahydro-N,N-dimethyl-2,2-diphenyl-3-furanmethanamine hydrochloride], the “Mini Mental State Examination (MMSE) and Cogstate scale changes” value [1] was “consistent with the observed trend of the cognitive EEG/ERP effect”, the safety profile [2] was “consistent with the Phase 1 data” and the safety and tolerability ([3]; ascending single oral doses of 1 mg, 10 mg, 30 mg, 40 mg, 50 mg, and 55 mg, healthy subjects) was “safe and well tolerated”. For the same molecule, the observed adverse events ([3]; at highest doses) was “moderate and reversible dizziness and headache”, the “minimum intolerable dose (MID)” value ([3]; male, human, in vivo, po) was 60 mg and the “Blood pressure and resting heart rate and other clinical parameters such as vital signs and 12-lead electrocardiogram (ECG)” value [3, 10] was “did not show any clinically relevant or dose-dependent changes”. The “QT interval and QTcB” value [3, 10] was “did not reveal any clinically significant changes”, the pharmacokinetics [3, 10] was “suitable for daily oral dosing” and the serious adverse events [3, 10] was “No serious adverse events occurred”. For the same molecule, the “maximum tolerable dose (MTD)” value ([3]; single oral dose, healthy male volunteers) was 55 mg, the “Aβ25-35-induced P-Akt decrease and P-GSK-3β increase” value ([4]; Aβ25-35 model) was “blocked” and the “Aβ25-35-induced endogenous Aβ1-42 seeding” value ([4]; Aβ25-35 model) was “decrease”. For the same molecule, the “hyperphosphorylation of Tau on physiological epitopes (AT-8 antibody clone) and on pathological epitopes (AT-100 clone)” value ([4]; Aβ25-35 model, in the dose-range tested) was “attenuated”, the “oxidative stress, caspases induction, cellular loss and learning and memory deficits” value ([4]; mice one week after i.c.v. injection of oligomeric Aβ25-35) was “attenuating” and the “peak alpha frequency (PAF)” value [5] was “higher than the baseline measurement of PAF”. For the same molecule, the “patients with improved P300 signal” value ([6]; 10 out of the 12 patients studied) was 83%, the “Percentage Increase Over Baseline Data” value ([6]; P300 amplitude, Day 36 vs baseline, twelve patients, hydrochloride) was 38% and the “percent P300 amplitude change compared to historical data for patients administered donepezil” value ([6]; after 1 month vs donepezil after 6 months) was “greater”. For the same molecule, the “P300 amplitude change compared to historical data for patients administered donepezil” value ([6]; day 36 (1 month) vs donepezil at the 1 month time point) was “about four times higher”, the “False Alarms” value ([6]; target detection task, Day 36, twelve patients (baseline 2.67 ± 1.12)) was 0.64 ± 0.26% and the “Button Press Accuracy” value ([6]; target detection task, Day 36, twelve patients (baseline 86.2 ± 4.47)) was 87.5 ± 4.01%. For the same molecule, the “Median Reaction Time” value ([6]; target detection task, Day 36, twelve patients (baseline 593 ± 33.0)) was 534 ± 42.0 ms, the “P300 ERP wave data” value ([6]; twelve patients, day 36 vs baseline, on-off-on regimen (30 or 50 mg oral, 3 or 5 mg i.v.), add-on to donepezil) was “improved measured cognitive performance as compared to the baseline data” and the affinities [7] was “low micromolar range”. For the same molecule, the affinities [8] was “low micromolar range”, the “loss of cognitive function” value ([9]; 3 mg intravenously, 5 days on / 20 days off, one year) was “stabilizes” and the “loss of cognitive function” value ([9]; 5 mg intravenously, 14 days on / 7 days off, one year) was “stabilizes”. For the same molecule, the “loss of cognitive function” value ([9]; 30 mg oral, 10 days on / 10 days off, 6 months) was “stabilizes”, the “loss of cognitive function” value ([9]; 50 mg oral, 10 days on / 20 days off) was “stabilizes” and the “loss of cognitive function” value ([9]; 50 mg oral, 14 days on / 7 days off, 6 months) was “stabilized”.
